What follows are compounds tested on Mycobacterium tuberculosis strain H37Rv (assay: Test 1: MIC determination, resazurin fluorescence, M. tuberculosis H37Rv). Details: Mycobacterium tuberculosis, H37RV, read-out: pIC50 (converted).
Format: cell-based

Row | SMILES | IC50 [µM]
1 | CCc1nc2ccc(Cl)cn2c1C(=O)NCC1CC12CCN(c1ccc(OC(F)(F)F)cc1)CC2 (stereo not drawn) [Compound 1] | 0.00933

Same assay, conditions: Mycobacterium tuberculosis, H37RV, read-out: pIC50 * (converted)

Row | SMILES | IC50 [µM]
2 | CCc1nc2ccc(Cl)cn2c1C(=O)NCC1CC12CCN(c1ccc(OC(F)(F)F)cc1)CC2 (stereo not drawn) [Compound 1] | 0.0132

Each compound was assayed on Mycobacterium tuberculosis strain EH 4.0 (361.269) (assay: Test 4: MIC determination, resazurin fluorescence, strain EH 4.0). Details: Mycobacterium tuberculosis, read-out: pIC50, Test 4, M. tuberculosis strain EH 4.0 (361.269) (converted).
Format: cell-based
From the text: TEST 4 (See Also Test 1 Above; in this Test a Different Strain of Mycobacterium tuberculosis Strain is Employed)
Appropriate solutions of experimental and reference compounds were made in 96 well plates with 7H9 medium. Samples of Mycobacterium tuberculosis strain EH 4.0 (361.269) were taken from cultures in stationary growth phase. These were first diluted to obtain an optical density of 0.3 at 600 nm wavelength and then diluted 1/100, resulting in an inoculum of approximately 5×10 exp5 colony forming units per well. Plates were incubated at 37° C. in plastic bags to prevent evaporation. After 7 days, resazurin was added to all wells.

Row | SMILES | IC50 [µM]
3 | CCc1nc2sc(C)cn2c1C(=O)NCC1CC2(CCN(c3ccc(OC(F)(F)F)cc3)CC2)C1 [Compound 32] | 0.0398
4 | O=C(NCC1CC12CCN(c1ccc(OC(F)(F)F)cc1)CC2)c1cc2n(c1)CCCC2 (stereo not drawn) [Compound 33] | > 12.6
5 | CCc1nc2cn(C)ccc-2c1C(=O)NCc1ccc(N2CC3(CC(F)C3)C2)cc1 [Compound 34] | > 12.6
6 | O=C(NCc1ccc(N2CC3(C2)CN(c2ccc(OC(F)(F)F)cc2)C3)cc1)c1cc2c([nH]1)CCCC2 [Compound 35] | 7.94
7 | CCc1c(C(=O)NCc2ccc(N3CC4(CC(c5ccc(OC(F)(F)F)cc5)C4)C3)cc2)c2ccncc2n1C [Compound 36] | 7.94
8 | O=C(NCc1ccc(N2CC3(CC(c4ccc(OC(F)(F)F)cc4)C3)C2)cc1)c1cc2c([nH]1)CCCC2 [Compound 37] | 3.98
9 | CCc1c(C(=O)NCC2CC23CCN(c2ccc(OC(F)(F)F)cc2)CC3)c2cc(Cl)cnc2n1C (stereo not drawn) [Compound 38] | > 12.6
10 | CCc1c(C(=O)NCC2CC23CCN(c2ccc(OC(F)(F)F)cc2)CC3)c2cc(Cl)ccc2n1C (stereo not drawn) [Compound 39] | > 12.6
11 | O=C(NCC1CC12CCN(c1ccc(OC(F)(F)F)cc1)CC2)c1cc2c([nH]1)CCCC2 (stereo not drawn) [Compound 40] | > 12.6
12 | CCc1nc2n(c1C(=O)NCC1CC13CCN(c1ccc(OC(F)(F)F)cc1)CC3)CCN(C)C2 (stereo not drawn) [Compound 41] | 7.94
13 | O=C(NCc1ccc(N2CC3(C2)CN(c2ccc(OC(F)(F)F)cc2)C3)cc1)c1cc2n(c1)CCCC2 [Compound 42] | 10
14 | CCc1c(C(=O)NCC2CC3(CCN(c4ccc(OC(F)(F)F)cc4)CC3)C2)c2cc(Cl)cnc2n1C [Compound 43] | > 12.6
15 | O=C(NCC1CC2(CCN(c3ccc(OC(F)(F)F)cc3)CC2)C1)c1cc2c([nH]1)CCCC2 [Compound 44] | 7.94
16 | O=C(NCc1ccc(N2CC3(CC(c4ccc(OC(F)(F)F)cc4)C3)C2)cc1)c1cc2n(c1)CCCC2 [Compound 45] | 7.94
17 | CCc1nc2n(c1C(=O)NCC1CC3(CCN(c4ccc(OC(F)(F)F)cc4)CC3)C1)CCN(C)C2 [Compound 46] | 7.94
18 | CCc1c(C(=O)NCc2ccc(N3CC4(C3)CN(c3ccc(OC(F)(F)F)cc3)C4)cc2)c2ccncc2n1C [Compound 47] | 6.31
19 | CCc1nc2n(c1C(=O)NCC1CC13CCN(c1ccc(OC(F)(F)F)cc1)CC3)CCCC2 (stereo not drawn) [Compound 48] | 6.31
20 | CCc1c(C(=O)NCC2CC23CCN(c2ccc(OC(F)(F)F)cc2)CC3)c2ccncc2n1C (stereo not drawn) [Compound 49] | > 12.6
21 | CCc1nc2cn(C)ccc-2c1C(=O)NCC1CC2(CCN(c3ccc(OC(F)(F)F)cc3)CC2)C1 [Compound 50] | > 12.6
22 | CCc1nc2ccn(C)cc-2c1C(=O)NCc1ccc(N2CC3(C2)CN(c2ccc(OC(F)(F)F)cc2)C3)cc1 [Compound 51] | 6.31
23 | CCc1c(C(=O)NCC2CC3(CCN(c4ccc(OC(F)(F)F)cc4)CC3)C2)c2ccncc2n1C [Compound 52] | 7.94
24 | CCc1nc2ccn(C)cc-2c1C(=O)NCC1CC12CCN(c1ccc(OC(F)(F)F)cc1)CC2 (stereo not drawn) [Compound 53] | > 12.6

Row | SMILES | IC50 [µM]
25 | CCc1nc2cnc(Cl)cn2c1C(=O)NCC1CC12CCN(c1ccc(OC(F)(F)F)cc1)CC2 (stereo not drawn) [Compound 54] | 7.94
26 | CCc1c(C(=O)NCC2CC23CCN(c2ccc(OC(F)(F)F)cc2)CC3)c2cnccc2n1C (stereo not drawn) [Compound 55] | > 12.6
27 | COc1ccn2nc(C)c(C(=O)NCc3ccc(C4CC5(C4)CN(c4ccc(OC(F)(F)F)cc4)C5)cc3)c2c1 [Compound 56] | 0.00631
28 | COc1ccn2nc(C)c(C(=O)NCc3ccc(N4CC5(C4)CN(c4ccc(OC(F)(F)F)cc4)C5)cc3)c2c1 [Compound 57] | 0.00794
29 | CCc1nc2cnc(Cl)cn2c1C(=O)NCc1ccc(N2CC3(C2)CN(c2ccc(OC(F)(F)F)cc2)C3)cc1 [Compound 58] | 0.1
30 | COc1ccn2nc(C)c(C(=O)NCC3CC4(CCN(c5ccc(OC(F)(F)F)cc5)CC4)C3)c2c1 [Compound 59] | 0.316
31 | Cc1nc2ncc(Cl)cn2c1C(=O)NCC1CC2(CCN(c3ccc(OC(F)(F)F)cc3)CC2)C1 [Compound 60] | 0.1
32 | CCc1nc2n(c1C(=O)NCC1CC3(CCN(c4ccc(OC(F)(F)F)cc4)CC3)C1)CCCC2 [Compound 61] | 0.631
33 | CCc1nc2sc(C)cn2c1C(=O)NCC1CC12CCN(c1ccc(OC(F)(F)F)cc1)CC2 (stereo not drawn) [Compound 64] | 0.1
34 | CCc1nc2n(c1C(=O)NCc1ccc(C3CC4(C3)CN(c3ccc(OC(F)(F)F)cc3)C4)cc1)CCCC2 [Compound 65] | 0.01
35 | CCc1nc2ncc(Cl)cn2c1C(=O)NCc1ccc(N2CC3(CC(c4ccc(S(F)(F)(F)(F)F)cc4)C3)C2)cc1 [Compound 66] | 0.00794
36 | CCc1nc2sc(C)cn2c1C(=O)NCc1ccc(C2CC3(C2)CN(c2ccc(OC(F)(F)F)cc2)C3)cc1 [Compound 67] | 0.01
37 | CCc1nc2n(c1C(=O)NCc1ccc(C3CC4(C3)CN(c3ccc(OC(F)(F)F)cc3)C4)cc1)CCN(C)C2 [Compound 69] | 0.0316
38 | CCc1nc2n(c1C(=O)NCc1ccc(N3CC4(C3)CN(c3ccc(OC(F)(F)F)cc3)C4)cc1)CCN(C)C2 [Compound 70] | 0.316
39 | CCc1nc2n(c1C(=O)NCc1ccc(N3CC4(CC(c5ccc(OC(F)(F)F)cc5)C4)C3)cc1)CCN(C)C2 [Compound 71] | 0.316
40 | CCc1nc2ccc(Cl)cn2c1C(=O)NCc1ccc(N2CC3(CC(Oc4ccc(C(F)(F)F)cc4)C3)C2)cc1 [Compound 72] | 0.01
41 | CCc1nc2ncc(Cl)cn2c1C(=O)NCc1ccc(N2CC3(CC(Oc4ccc(C(F)(F)F)cc4)C3)C2)cc1 [Compound 73] | 0.2
42 | CCc1nc2n(c1C(=O)NCc1ccc(N3CC4(CC(Oc5ccc(C(F)(F)F)cc5)C4)C3)cc1)CCN(C)C2 [Compound 74] | 0.0631
43 | CCc1nc2ccc(Cl)cn2c1C(=O)NCc1ccc(N2CC3(CC(c4cccnc4)C3)C2)cc1 [Compound 77] | 0.794
44 | CCc1nc2n(c1C(=O)NCc1ccc(N3CC4(CC(F)C4)C3)cc1)CCN(C)C2 [Compound 78] | 2.51
45 | CCc1c(C(=O)NCc2ccc(N3CC4(C3)CN(c3ccc(OC(F)(F)F)cc3)C4)cc2)c2cc(Cl)cnc2n1C [Compound 79] | > 12.6
46 | CCc1c(C(=O)NCc2ccc(N3CC4(C3)CN(c3ccc(OC(F)(F)F)cc3)C4)cc2)c2cc(Cl)ccc2n1C [Compound 80] | > 12.6

Row | SMILES | IC50 [µM]
47 | CCc1nc2ccc(Cl)cn2c1C(=O)NCc1ccc(N2CCC3(CC2)CC(F)C3)cc1 [Compound 81] | 0.00501
48 | CCc1nn2ccc(C)nc2c1C(=O)NCc1ccc(N2CC3(CC(c4ccc(OC(F)(F)F)cc4)C3)C2)cc1 [Compound 97] | > 12.6
49 | CCc1nn2c(C)ccnc2c1C(=O)NCc1ccc(N2CC3(CC(c4ccc(OC(F)(F)F)cc4)C3)C2)cc1 [Compound 98] | > 12.6
50 | CCc1nc2cn(C)ccc-2c1C(=O)NCC1CC12CCN(c1ccc(OC(F)(F)F)cc1)CC2 (stereo not drawn) [Compound 99] | > 12.6
51 | O=C(NCC1CC2(CCN(c3ccc(OC(F)(F)F)cc3)CC2)C1)c1cc2n(c1)CCCC2 [Compound 100] | > 12.6
52 | CCc1nc2cnc(Cl)cn2c1C(=O)NCC1CC2(CCN(c3ccc(OC(F)(F)F)cc3)CC2)C1 [Compound 101] | 1.58
53 | CCc1nn2ccc(C)nc2c1C(=O)NCc1ccc(C2CC3(C2)CN(c2ccc(OC(F)(F)F)cc2)C3)cc1 [Compound 102] | 3.98
54 | CCc1nn2c(C)ccnc2c1C(=O)NCc1ccc(C2CC3(C2)CN(c2ccc(OC(F)(F)F)cc2)C3)cc1 [Compound 103] | 7.94
55 | CCc1nc2ccn(C)cc-2c1C(=O)NCc1ccc(N2CC3(CC(c4ccc(OC(F)(F)F)cc4)C3)C2)cc1 [Compound 104] | > 12.6
56 | CCc1nn2c(C)ccnc2c1C(=O)NCC1CC2(CCN(c3ccc(OC(F)(F)F)cc3)CC2)C1 [Compound 105] | > 12.6
57 | CCc1nn2ccc(C)nc2c1C(=O)NCC1CC12CCN(c1ccc(OC(F)(F)F)cc1)CC2 (stereo not drawn) [Compound 106] | > 12.6
58 | CCc1nn2ccc(C)nc2c1C(=O)NCC1CC2(CCN(c3ccc(OC(F)(F)F)cc3)CC2)C1 [Compound 107] | > 12.6
59 | CCc1nn2c(C)ccnc2c1C(=O)NCC1CC12CCN(c1ccc(OC(F)(F)F)cc1)CC2 (stereo not drawn) [Compound 108] | > 12.6
60 | CCc1nc2ccn(C)cc-2c1C(=O)NCC1CC2(CCN(c3ccc(OC(F)(F)F)cc3)CC2)C1 [Compound 109] | > 12.6
61 | CCc1[nH]c2ncc(Cl)cc2c1C(=O)NCC1CC12CCN(c1ccc(OC(F)(F)F)cc1)CC2 (stereo not drawn) [Compound 110] | > 12.6
62 | CCc1c(C(=O)NCC2CC3(CCN(c4ccc(OC(F)(F)F)cc4)CC3)C2)c2cnccc2n1C [Compound 111] | > 12.6
63 | CCc1nc2ccn(C)cc-2c1C(=O)NCc1ccc(C2CC3(C2)CN(c2ccc(OC(F)(F)F)cc2)C3)cc1 [Compound 112] | 3.16
64 | CCc1[nH]c2ncc(Cl)cc2c1C(=O)NCC1CC2(CCN(c3ccc(OC(F)(F)F)cc3)CC2)C1 [Compound 113] | > 12.6
65 | CCc1c(C(=O)NCc2ccc(C3CC4(C3)CN(c3ccc(OC(F)(F)F)cc3)C4)cc2)c2cc(Cl)ccc2n1C [Compound 114] | 12.6
66 | O=C(NCc1ccc(C2CC3(C2)CN(c2ccc(OC(F)(F)F)cc2)C3)cc1)c1cc2c([nH]1)CCCC2 [Compound 115] | 3.16
67 | CCc1nc2ccc(Cl)cn2c1C(=O)NCc1ccc(C2CC3(C2)CN(C=O)C3)cc1 [Compound 116] | 0.316

Same assay, conditions: Test 4, M. tuberculosis strain EH 4.0 (361.269)

Row | SMILES | pIC50
68 | CCc1nc2ccc(Cl)cn2c1C(=O)NCC1CC12CCN(c1ccc(OC(F)(F)F)cc1)CC2 (stereo not drawn) [Compound 1] | 7.0
69 | CCc1nc2ccc(Cl)cn2c1C(=O)NCC1CC12CCN(c1ccc(OC(F)(F)F)cc1)CC2 (stereo not drawn) [Compound 63] | 6.5

From patent US20190330189A1, “ANTIBACTERIAL COMPOUNDS” (Janssen Sciences Ireland UC, priority 2015, published 2019)
